Reference: patent publication US10844032B2, “Substituted benzofuran, benzothiophene and indole Mcl-1 inhibitors” (Vanderbilt University, priority 2012, dated 2020)

These compounds were tested against recombinant Mcl-1 (residues 172-327) (Homo sapiens (Human), UniProt Q07820) (assay: Bak peptide fluorescence polarization anisotropy competition assay, Mcl-1). Settings: Table 2, Ki range; FITC-Bak peptide 10 nM, Mcl-1 14 nM; read-out: Ki for inhibition of Mcl-1.
Sequence of recombinant Mcl-1 (residues 172-327) (Q07820 172-327): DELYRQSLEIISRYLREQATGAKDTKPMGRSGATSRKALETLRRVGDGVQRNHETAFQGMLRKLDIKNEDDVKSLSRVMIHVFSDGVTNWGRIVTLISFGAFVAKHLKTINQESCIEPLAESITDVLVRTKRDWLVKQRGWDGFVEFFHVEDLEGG
Format: binding
With Cc1cc(OCCCc2c(C(=O)NS(=O)(=O)CCNC(=O)C3CCCCC3)[nH]c3c(-c4c(CO)nn(C)c4C)cccc23)cc(C)c1Cl [Example 205, 3-(3-(4-chloro-3,5-dimethylphenoxy)propyl)-N-((2-(cyclohexanecarboxamido)ethyl)sulfonyl)-7-(3-(hydroxymethyl)-1,5-dimethyl-1H-pyrazol-4-yl)-1H-indole-2-carboxamide] the Ki was ≤ 100 nM. Cc1cc(OCCCc2c(C(=O)NS(C)(=O)=O)[nH]c3cccc(C)c23)cc(C)c1Cl [Example 116, 3-(3-(4-chloro-3,5-dimethylphenoxy)propyl)-4-methyl-N-(methylsulfonyl)-1H-indole-2-carboxamide] was tested, and the Ki was ≤ 100 nM. For Cc1cc(OCCCc2c(C(=O)NS(=O)(=O)c3ccccc3)[nH]c3c(-c4c(C)noc4C)cccc23)cc(C)c1Cl [Example 88, 3-(3-(4-chloro-3,5-dimethylphenoxy)propyl)-7-(3,5-dimethylisoxazol-4-yl)-N-(phenylsulfonyl)-1H-indole-2-carboxamide], the Ki was ≤ 100 nM. With Cc1cccc(S(=O)(=O)NC(=O)c2[nH]c3c(-c4c(CO)nn(C)c4C)cccc3c2CCCOc2cc(C)c(Cl)c(C)c2)c1 [Example 204, 3-(3-(4-chloro-3,5-dimethylphenoxy)propyl)-7-(3-(hydroxymethyl)-1,5-dimethyl-1H-pyrazol-4-yl)-N-(m-tolylsulfonyl)-1H-indole-2-carboxamide] the Ki was ≤ 100 nM. For Cc1cc(OCCCc2c(C(=O)NS(C)(=O)=O)[nH]c3cccc(Cl)c23)cc(C)c1Cl [Example 51, 4-chloro-3-(3-(4-chloro-3,5-dimethylphenoxy)propyl)-N-(methylsulfonyl)-1H-indole-2-carboxamide], the Ki was ≤ 100 nM.

Same assay, conditions: read-out: Ki for inhibition of Mcl-1
With Cc1cc(OCCCc2c(C(=O)NS(=O)(=O)CCNC(=O)c3cccn3Cc3ccc(F)cc3)[nH]c3cc(Cl)ccc23)cc(C)c1Cl [Example 242, 6-chloro-3-(3-(4-chloro-3,5-dimethylphenoxy)propyl)-N-((2-(1-(4-fluorobenzyl)-1H-pyrrole-2-carboxamido)ethyl)sulfonyl)-1H-indole-2-carboxamide] the Ki was 101 to 299 nM. Work on Cc1cc(OCCCc2c(C(=O)NS(=O)(=O)CCN3C(=O)c4ccccc4C3=O)[nH]c3ccccc23)cc(C)c1Cl [Example 197, 3-(3-(4-chloro-3,5-dimethylphenoxy)propyl)-N-((2-(1,3-dioxoisoindolin-2-yl)ethyl)sulfonyl)-1H-indole-2-carboxamide] yielded a Ki of 501 to 999 nM. With Cc1cc(OCCCc2c(C(=O)NS(=O)(=O)C3CCN(C(=O)c4cccc(Oc5ccccc5)c4)CC3)[nH]c3cc(Cl)ccc23)cc(C)c1Cl [Example 213, 6-chloro-3-(3-(4-chloro-3,5-dimethylphenoxy)propyl)-N-((1-(3-phenoxybenzoyl)piperidin-4-yl)sulfonyl)-1H-indole-2-carboxamide] the Ki was 301 to 500 nM. Work on Cc1cc(OCCCc2c(C(=O)NS(=O)(=O)C3CCN(C(=O)C4CCCCC4)CC3)[nH]c3cc(Cl)ccc23)cc(C)c1Cl [Example 212, 6-chloro-3-(3-(4-chloro-3,5-dimethylphenoxy)propyl)-N-((1-(cyclohexanecarbonyl)piperidin-4-yl)sulfonyl)-1H-indole-2-carboxamide] yielded a Ki of 301 to 500 nM. O=C(O)c1sc2ccccc2c1CCc1cccc2ccccc12 [Example 64, 3-(2-(naphthalen-1-yl)ethyl)benzo[b]thiophene-2-carboxylic acid] showed a Ki of 1000 to 9990 nM. CS(=O)(=O)NC(=O)c1[nH]c2ccccc2c1CCCOc1cccc(C(F)(F)F)c1 [Example 32, N-(methylsulfonyl)-3-(3-(3-(trifluoromethyl)phenoxy)propyl)-1H-indole-2-carboxamide] was tested, and the Ki was 1000 to 9990 nM. Cc1cc(OCCCc2c(C(=O)NS(=O)(=O)c3ccc(OCc4ccccc4)cc3)[nH]c3ccccc23)cc(C)c1Cl [Example 136, N-((4-(benzyloxy)phenyl)sulfonyl)-3-(3-(4-chloro-3,5-dimethylphenoxy)propyl)-1H-indole-2-carboxamide] showed a Ki of 101 to 299 nM. In the case of CC(=O)NCCS(=O)(=O)NC(=O)c1[nH]c2cc(Cl)ccc2c1CCCOc1cc(C)c(Cl)c(C)c1 [Example 251, N-((2-acetamidoethyl)sulfonyl)-6-chloro-3-(3-(4-chloro-3,5-dimethylphenoxy)propyl)-1H-indole-2-carboxamide], the Ki is reported as 101 to 299 nM. Cc1cc(OCCCc2c(C(=O)NS(=O)(=O)CCNC(=O)c3ccccn3)[nH]c3ccccc23)cc(C)c1Cl [Example 190, 3-(3-(4-chloro-3,5-dimethylphenoxy)propyl)-N-((2-(picolinamido)ethyl)sulfonyl)-1H-indole-2-carboxamide] showed a Ki of 101 to 299 nM. Work on Cc1cc(OCCCc2c(C(=O)NS(C)(=O)=O)sc3cccc(Cl)c23)cc(C)c1Cl [Example 71, 4-chloro-3-(3-(4-chloro-3,5-dimethylphenoxy)propyl)-N-(methylsulfonyl)benzo[b]thiophene-2-carboxamide] yielded a Ki of 1000 to 9990 nM. O=C(NS(=O)(=O)Cc1ccccc1)c1sc2ccccc2c1CCCOc1cccc2ccccc12 [Example 62, N-(Benzylsulfonyl)-3-(3-(naphthalen-1-yloxy)propyl)benzo[b]thiophene-2-carboxamide] showed a Ki of 1000 to 9990 nM. For Cc1ccoc1C(=O)NCCS(=O)(=O)NC(=O)c1[nH]c2ccccc2c1CCCOc1cc(C)c(Cl)c(C)c1 [Example 156], the Ki was 501 to 999 nM. Compound COc1ccc(Oc2cccc(S(=O)(=O)NC(=O)c3[nH]c4ccccc4c3CCCOc3cc(C)c(Cl)c(C)c3)c2)cc1 [Example 142, 3-(3-(4-chloro-3,5-dimethylphenoxy)propyl)-N-((3-(4-methoxyphenoxy)phenyl)sulfonyl)-1H-indole-2-carboxamide] has a Ki of 301 to 500 nM. With Cc1cc(OCCCc2c(C(=O)NS(=O)(=O)c3cccc4ccccc34)oc3ccccc23)cc(C)c1Cl [Example 28, 3-(3-(4-chloro-3,5-dimethylphenoxy)propyl)-N-(naphthalen-1-ylsulfonyl)benzofuran-2-carboxamide] the Ki was 1000 to 9990 nM. With Cc1cc(OCCCc2c(C(=O)NS(=O)(=O)CCc3ccccc3)[nH]c3ccccc23)cc(C)c1Cl [Example 140, 3-(3-(4-chloro-3,5-dimethylphenoxy)propyl)-N-(phenethylsulfonyl)-1H-indole-2-carboxamide] the Ki was 501 to 999 nM. Work on Cc1cc(OCCCc2c(C(=O)NS(=O)(=O)CCNS(=O)(=O)c3ccc(Cl)c(Cl)c3)[nH]c3ccccc23)cc(C)c1Cl [Example 148, 3-(3-(4-chloro-3,5-dimethylphenoxy)propyl)-N-((2-(3,4-dichlorophenylsulfonamido)ethyl)sulfonyl)-1H-indole-2-carboxamide] yielded a Ki of 101 to 299 nM. CCC(=O)NCCS(=O)(=O)NC(=O)c1[nH]c2cc(Cl)ccc2c1CCCOc1cc(C)c(Cl)c(C)c1 [Example 252, 6-chloro-3-(3-(4-chloro-3,5-dimethylphenoxy)propyl)-N-((2-propionamidoethyl)sulfonyl)-1H-indole-2-carboxamide] showed a Ki of 101 to 299 nM. Cc1cc(OCCCc2c(C(=O)NS(=O)(=O)CCN3C(=O)c4ccccc4C3=O)[nH]c3cc(Cl)ccc23)cc(C)c1Cl [Example 250, 6-chloro-3-(3-(4-chloro-3,5-dimethylphenoxy)propyl)-N-((2-(1,3-dioxoisoindolin-2-yl)ethyl)sulfonyl)-1H-indole-2-carboxamide] gave a Ki of 101 to 299 nM. Compound CS(=O)(=O)NC(=O)c1[nH]c2cc(Br)ccc2c1CCCOc1cccc2ccccc12 [Example 114, 6-bromo-N-(methylsulfonyl)-3-(3-(naphthalen-1-yloxy)propyl)-1H-indole-2-carboxamide] has a Ki of 301 to 500 nM. Work on Cc1cc(OCCCc2c(C(=O)NS(C)(=O)=O)[nH]c3cccc(C(F)(F)F)c23)cc(C)c1Cl [Example 82, 3-(3-(4-chloro-3,5-dimethylphenoxy)propyl)-N-(methylsulfonyl)-4-(trifluoromethyl)-1H-indole-2-carboxamide] yielded a Ki of 101 to 299 nM. Work on Cc1cc(OCCCc2c(C(=O)NS(=O)(=O)CCNC(=O)C3CCCCC3)[nH]c3ccccc23)cc(C)c1Cl [Example 150, 3-(3-(4-chloro-3,5-dimethylphenoxy)propyl)-N-((2-(cyclohexanecarboxamido)ethyl)sulfonyl)-1H-indole-2-carboxamide] yielded a Ki of 101 to 299 nM. Cc1cc(OCCCc2c(C(=O)NS(=O)(=O)CCNC(=O)C3CCCCC3)[nH]c3cccc(Cl)c23)cc(C)c1Cl [Example 208, 4-chloro-3-(3-(4-chloro-3,5-dimethylphenoxy)propyl)-N-((2-(cyclohexanecarboxamido)ethyl)sulfonyl)-1H-indole-2-carboxamide] showed a Ki of 301 to 500 nM. Compound Cc1cc(OCCCc2c(C(=O)NS(=O)(=O)CCNC(=O)C3CCCCC3)n(Cc3cccnc3)c3cc(Cl)ccc23)cc(C)c1Cl [Example 275, 6-chloro-3-(3-(4-chloro-3,5-dimethylphenoxy)propyl)-N-((2-(cyclohexanecarboxamido)ethyl)sulfonyl)-1-(pyridin-3-ylmethyl)-1H-indole-2-carboxamide] has a Ki of 101 to 299 nM. Work on Cc1cc(OCCCc2c(C(=O)NS(=O)(=O)CCNC(=O)c3cc(C)n(C4CC4)c3C)[nH]c3ccccc23)cc(C)c1Cl [Example 193, 3-(3-(4-chloro-3,5-dimethylphenoxy)propyl)-N-((2-(1-cyclopropyl-2,5-dimethyl-1H-pyrrole-3-carboxamido)ethyl)sulfonyl)-1H-indole-2-carboxamide] yielded a Ki of 101 to 299 nM. COc1ccc(S(=O)(=O)NCCS(=O)(=O)NC(=O)c2[nH]c3ccccc3c2CCCOc2cc(C)c(Cl)c(C)c2)cc1 [Example 147, 3-(3-(4-chloro-3,5-dimethylphenoxy)propyl)-N-((2-(4-methoxyphenylsulfonamido)ethyl)sulfonyl)-1H-indole-2-carboxamide] gave a Ki of 301 to 500 nM. Work on Cc1cc(OCCCc2c(C(=O)NS(=O)(=O)CCNC(=O)c3cccn3-c3ccccc3)[nH]c3ccccc23)cc(C)c1Cl [Example 172, 3-(3-(4-chloro-3,5-dimethylphenoxy)propyl)-N-((2-(1-phenyl-1H-pyrrole-2-carboxamido)ethyl)sulfonyl)-1H-indole-2-carboxamide] yielded a Ki of 101 to 299 nM. In the case of Cc1cc(OCCCc2c(C(=O)NS(C)(=O)=O)[nH]c3cc(Br)ccc23)cc(C)c1Cl [Example 112, 6-bromo-3-(3-(4-chloro-3,5-dimethylphenoxy)propyl)-N-(methylsulfonyl)-1H-indole-2-carboxamide], the Ki is reported as 301 to 500 nM.
